Test systems include SN12C renal; RXF 393 renal; HCT-116 colon; DU-145 prostate; MDA-MB-435; SK-MEL-2 melanoma; HOP-62 NSCLC; HOP-92 NSCLC; SF-295 CNS; NCI/ADR-RES ovarian; U251 CNS.
What all share (experiment): inhibition of tumour cell growth, NCI panel, 48 h

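Five concentrations, 48 hours, 96-well plates. GI50 is the concentration that inhibits growth by half. TGI: total growth inhibition.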 Where only a bound is given, the exact number is not on record here.

Take `CC(C)(C)COC(=O)C(C)(C)NC(=O)C(CC(=O)OCc1ccccc1)NC(=O)OCc1ccccc1` (stereo not given): the TGI was 75.7 µM in the experiment with SN12C renal; > 100 µM in the experiment with RXF 393 renal; > 100 µM in the experiment with HCT-116 colon; > 100 µM with DU-145 prostate; 89.9 µM in the experiment with MDA-MB-435; > 100 µM in the experiment on SK-MEL-2 melanoma. The TGI in the experiment on HOP-62 NSCLC, with HOP-92 NSCLC, in the experiment with SF-295 CNS, with NCI/ADR-RES ovarian and in the experiment on U251 CNS was > 100 µM throughout.
In the case of `CC(C)(C)NC1=NC(C(F)(F)F)(C(F)(F)F)NC(=O)N1`, the TGI in the experiment with SN12C renal, in the experiment on RXF 393 renal, in the experiment with HCT-116 colon, with DU-145 prostate, in the experiment with MDA-MB-435 and in the experiment on SK-MEL-2 melanoma was > 100 µM in each case. For the same compound, the TGI with HOP-62 NSCLC, with HOP-92 NSCLC, in the experiment on SF-295 CNS, in the experiment with NCI/ADR-RES ovarian and in the experiment with U251 CNS was > 100 µM each time.
In the case of `Cc1cc2cc3cc(C)c(N)cc3nc2cc1N`, the TGI turned out to be 1.63 µM with SN12C renal; 2.47 µM in the experiment on RXF 393 renal; 1.31 µM with HCT-116 colon; 1.87 µM in the experiment on DU-145 prostate; 11 µM with MDA-MB-435; 10.4 µM with SK-MEL-2 melanoma. For the same compound, the TGI in the experiment with HOP-62 NSCLC turned out to be 1.32 µM; with HOP-92 NSCLC, 4.89 µM; in the experiment on SF-295 CNS, 1.41 µM; in the experiment on NCI/ADR-RES ovarian it was 9.83 µM.
Take `Cc1ccc(S(=O)(=O)N2CCC[C@@H]2C(=O)O[C@@H]2CCC3CC=CC32)cc1` (stereo not given in full): the TGI is > 100 µM with SN12C renal; 66.5 µM in the experiment on RXF 393 renal; > 100 µM with HCT-116 colon; > 100 µM with DU-145 prostate; > 100 µM in the experiment with MDA-MB-435; 97.2 µM in the experiment with HOP-62 NSCLC. Also, the TGI with HOP-92 NSCLC is 44 µM; with SF-295 CNS, > 100 µM; with NCI/ADR-RES ovarian it was 63.2 µM; in the experiment on U251 CNS, > 100 µM.
Turning to `CSc1ncc2c(n1)-c1ccccc1OC2N1CCOCC1` (stereo not given), the TGI in the experiment on SN12C renal, in the experiment on RXF 393 renal, with HCT-116 colon, with DU-145 prostate, in the experiment on MDA-MB-435 and with SK-MEL-2 melanoma was > 100 µM throughout. Moreover, the TGI in the experiment on HOP-92 NSCLC, in the experiment on SF-295 CNS, with NCI/ADR-RES ovarian and in the experiment on U251 CNS was > 100 µM each time.
Turning to `CCC(C)(C)c1cc(O)c(C(C)(C)CC)cc1O`, the GI50 with SN12C renal is 3.2 µM; in the experiment with RXF 393 renal, 2.69 µM; in the experiment with DU-145 prostate, 4.39 µM; in the experiment on MDA-MB-435, 2.62 µM; in the experiment on SK-MEL-2 melanoma it was 1.85 µM; with HOP-92 NSCLC, 1.63 µM. For the same compound, the GI50 in the experiment on SF-295 CNS was 2.25 µM; in the experiment on NCI/ADR-RES ovarian, 2.96 µM; in the experiment with U251 CNS, 2.18 µM. For the same compound, the TGI amounted to 16.4 µM in the experiment with SN12C renal; 7.25 µM with RXF 393 renal; 17.1 µM in the experiment with DU-145 prostate; 10.9 µM in the experiment with MDA-MB-435; 4.33 µM with SK-MEL-2 melanoma; 5.62 µM with HOP-92 NSCLC. Also, the TGI with SF-295 CNS was 5.18 µM; in the experiment with NCI/ADR-RES ovarian, 11.3 µM; in the experiment with U251 CNS it was 6.23 µM.
Turning to `COc1ccc(-n2c(SC(CN3CCOCC3)CN3CCCC3=O)nc3ccccc3c2=O)cc1` (stereo not given), the TGI in the experiment on SN12C renal, in the experiment on RXF 393 renal, with HCT-116 colon, with DU-145 prostate, with MDA-MB-435 and with SK-MEL-2 melanoma was > 100 µM each time. In addition, the TGI in the experiment with HOP-92 NSCLC, in the experiment with SF-295 CNS, in the experiment on NCI/ADR-RES ovarian and with U251 CNS was > 100 µM each time.
For the compound `CCn1c2nc(=O)n(CCCCCCCCSC(c3ccccc3)(c3ccccc3)c3ccccc3)c(=O)c-2nc2ccccc21`, the TGI in the experiment with RXF 393 renal, in the experiment on HCT-116 colon, in the experiment on DU-145 prostate, in the experiment on MDA-MB-435, with SK-MEL-2 melanoma and in the experiment with HOP-62 NSCLC was > 100 µM each time. Also, the TGI in the experiment on HOP-92 NSCLC is 53.1 µM; in the experiment with SF-295 CNS it was > 100 µM; in the experiment on NCI/ADR-RES ovarian it was > 100 µM; in the experiment on U251 CNS, > 100 µM.
With `CN(c1ccccc1)S(=O)(=O)c1ccc([N+](=O)[O-])cc1`, the TGI with SN12C renal, in the experiment with RXF 393 renal, in the experiment with HCT-116 colon, in the experiment on DU-145 prostate, in the experiment with MDA-MB-435 and in the experiment on SK-MEL-2 melanoma was > 100 µM each time. For the same compound, the TGI with HOP-62 NSCLC, with SF-295 CNS, with NCI/ADR-RES ovarian and in the experiment on U251 CNS was > 100 µM in each case.
On to `Cc1ccc(Cc2cc(N3CCN(c4cccc(Cl)c4)CC3)nnc2C)cc1`, for which the TGI in the experiment with SN12C renal, with RXF 393 renal, in the experiment on HCT-116 colon, in the experiment with DU-145 prostate, in the experiment on MDA-MB-435 and in the experiment on SK-MEL-2 melanoma was > 100 µM each time. The TGI in the experiment on HOP-62 NSCLC, in the experiment with SF-295 CNS, in the experiment with NCI/ADR-RES ovarian and in the experiment on U251 CNS was > 100 µM in each case.
`O=c1[nH]c2ccccc2c(O)c1Cc1ccccc1`: the TGI with SN12C renal, in the experiment with RXF 393 renal, in the experiment with HCT-116 colon, with DU-145 prostate, in the experiment on MDA-MB-435 and with HOP-62 NSCLC was > 100 µM in each case. Besides, the TGI in the experiment on HOP-92 NSCLC, in the experiment with SF-295 CNS, in the experiment with NCI/ADR-RES ovarian and in the experiment with U251 CNS was > 100 µM each time.
With `CCC(=O)Nc1cccc(N=Cc2ccc(OC(=O)/C=C\c3ccccc3)cc2)c1`, the TGI is > 75 µM with SN12C renal; 48.1 µM in the experiment on RXF 393 renal; > 75 µM in the experiment on HCT-116 colon; > 75 µM in the experiment with DU-145 prostate; > 75 µM in the experiment with MDA-MB-435; > 75 µM in the experiment on SK-MEL-2 melanoma. The TGI with HOP-62 NSCLC, in the experiment with HOP-92 NSCLC, with SF-295 CNS and in the experiment with NCI/ADR-RES ovarian was > 75 µM in each case.

(Values after PubChem BioAssay (NCI).)
